The assay relates to cisplatin-resistant ovarian cancer cell line A2780cis. Description: Caspase-3/7 activity assay (apoptotic cell death), compound alone or with cisplatin. The class given is cell-based, human. The note with it: for caspase-3/7 activity (Lum), compound with cisplatin / caspase-3/7 activity (Lum), compound alone: 20 h; for caspase-3/7 activity (Lum), compound alone: compound 20 μM; for activity in the screen (Caspase-3/7 activity and microscopic examination), active / inactive: alone or in the presence of cisplatin, in words. The protocol:
Cell proliferation was determined using a CyQUANT Direct Cell Proliferation Assay kit (Invitrogen), the activity of caspase-3/7 was measured using a Caspase-Glo 3/7 Assay Systems (Promega, Madison, Wis.), and the MTS calorimetric survival assay was performed using the CellTiter 96 AQueous One Solution Cell Proliferation Assay kit (Promega, Madison, Wis.), according to the manufacturer's instructions. The survival fractions were calculated after setting untreated control cells at 100%. The data were plotted and curve fitted using GraphPad Prism software. To quantify the number of cells with active caspase-3, cells were fixed with 4% paraformaldehyde (Electron microscopy sciences, Hatfield, Pa.), stained with Alexa Fluor-488 conjugated antibody against cleaved caspase-3 (Asp175) (Cell Signaling Technology, Danvers, Mass.) followed by flow cytometry. An FITC Annexin V Apoptosis Detection Kit (BD PharMingen, San Diego, Calif.) was used to quantify apoptotic cells, according to the manufacturer's instructions.
A Caspase-3/7 assay was performed to evaluate the activity of the 36 compounds of FIG. 1 in vitro in the cisplatin-resistant ovarian cancer cell line, A2780cis, alone or in the presence of cisplatin. A microscopic examination of apoptotic morphologic changes was also carried out right before the measurement of Caspase-3/7 activity, in order to confirm that the data on the activation of the Caspase-3/7 following treatment is consistent with morphological change and reflects cell death.

The mark [1] stands for this setting: Table 1, compound 20 μM with 20 μM cisplatin.
Where [2] appears, read: Table 1, mean ± S.D. of triplicates.
The mark [3] stands for this setting: Table 3, compound 20 μM with 20 μM of cisplatin.

Molecules are shown by their SMILES.

Regarding `CC(C)CC(NC(=O)Cn1c(=O)[nH]c(=O)c2ccccc21)c1ccccc1` (centres unmarked) [Compound 1-25], the “caspase-3/7 activity (Lum), compound with cisplatin” value under setting [1] was 33 ± 2 Lum. The “caspase-3/7 activity (Lum), compound alone” value under setting [2] was 15 ± 1 Lum.

`N#Cc1c(-c2ccc(Br)cc2)[nH]c(=S)[nH]c1=O` [Compound 1-26]: the “caspase-3/7 activity (Lum), compound with cisplatin” value under setting [1] is given as 26 ± 1 Lum. For the same compound, the “caspase-3/7 activity (Lum), compound alone” value under setting [2] came out at 14 ± 3 Lum.

Regarding `CC(C)(C)C1CCc2c(sc3[nH]c(=S)n(Cc4ccccc4)c(=O)c23)C1` (centres unmarked) [Compound 1-27], the “activity in the screen (Caspase-3/7 activity and microscopic examination), active / inactive” value (“activity in the screen … active / inactive” below) was “inactive”. Moreover, the “caspase-3/7 activity (Lum), compound with cisplatin” value under setting [1] is 40 ± 5 Lum. Further, under setting [2], the “caspase-3/7 activity (Lum), compound alone” value came out at 23 ± 2 Lum.

As for `Nn1c(=S)[nH]c2ccccc2c1=O` [Compound 1-28], the “caspase-3/7 activity (Lum), compound with cisplatin” value under setting [1] came to 22 ± 2 Lum. Also, the “caspase-3/7 activity (Lum), compound alone” value under setting [2] was found to be 15 ± 1 Lum.

Turning to `CC(=O)Nn1c(=S)[nH]c2ccccc2c1=O` [Compound 1-29], the “caspase-3/7 activity (Lum), compound with cisplatin” value under setting [1] is recorded as 23 ± 1 Lum. Moreover, the “caspase-3/7 activity (Lum), compound alone” value under setting [2] is recorded as 15 ± 2 Lum.

For `CCN(CC)CCn1c(=O)[nH]c2ccccc2c1=O` [Compound 1-31], the “caspase-3/7 activity (Lum), compound with cisplatin” value under setting [1] worked out at 26 ± 4 Lum. Moreover, the “caspase-3/7 activity (Lum), compound alone” value under setting [2] was 12 ± 1 Lum.

`O=c1[nH]c2ccccc2c(=O)n1CCCN1CCOCC1` [Compound 1-32]: the “caspase-3/7 activity (Lum), compound with cisplatin” value under setting [1] is 20 ± 1 Lum. In addition, the “caspase-3/7 activity (Lum), compound alone” value under setting [2] is 13 ± 1 Lum.

Regarding `O=c1[nH]c2ccccc2c(=O)n1CCc1ccccc1` [Compound 1-33], the “caspase-3/7 activity (Lum), compound with cisplatin” value under setting [1] was 16 ± 1 Lum. The “caspase-3/7 activity (Lum), compound alone” value under setting [2] is listed as 10 ± 1 Lum.

As for `CCOC(=O)c1ccccc1NC(=O)c1c(O)[nH]c(=S)[nH]c1=O` [Compound 1-34], the “caspase-3/7 activity (Lum), compound with cisplatin” value under setting [1] was 22 ± 3 Lum. For the same compound, the “caspase-3/7 activity (Lum), compound alone” value under setting [2] is reported as 12 ± 1 Lum.

Regarding `O=C(Nc1ccccc1)c1c(O)[nH]c(=S)[nH]c1=O` [Compound 1-35], under setting [1], the “caspase-3/7 activity (Lum), compound with cisplatin” value came out at 5 ± 1 Lum. Also, the “caspase-3/7 activity (Lum), compound alone” value under setting [2] was determined as 2 ± 1 Lum.

Turning to `CCCCn1c(=S)[nH]c2cc(C(=O)OC)ccc2c1=O` [Compound 1-36], under setting [1], the “caspase-3/7 activity (Lum), compound with cisplatin” value was determined as 47 ± 3 Lum. Under setting [2], the “caspase-3/7 activity (Lum), compound alone” value was 16 ± 2 Lum.

As to `Cc1cccnc1NC(=S)NC(=O)c1cccs1` [Compound 2-2], the “caspase-3/7 activity (Lum), compound with cisplatin” value under setting [3] is on record as 25 ± 1 Lum. Also, the “caspase-3/7 activity (Lum), compound alone” value (Table 3) is 9 ± 1 Lum.

`O=C(NC(=S)Nc1ccccc1N1CCOCC1)c1ccco1` [Compound 2-3]: the “caspase-3/7 activity (Lum), compound with cisplatin” value under setting [3] is 20 ± 1 Lum. Besides, the “caspase-3/7 activity (Lum), compound alone” value (Table 3) amounted to 8 ± 1 Lum.

`O=C(NC(=S)Nc1ccccc1N1CCCC1)c1cccs1` [Compound 2-4]: the “caspase-3/7 activity (Lum), compound with cisplatin” value under setting [3] amounted to 18 ± 1 Lum. The “caspase-3/7 activity (Lum), compound alone” value (Table 3) was determined as 8 ± 1 Lum.

Consider `COc1ccc(C=C2C(=O)NC(=S)NC2=O)c(OC)c1` [Compound 2-6], for which the “caspase-3/7 activity (Lum), compound with cisplatin” value under setting [3] was determined as 22 ± 1 Lum. Under “Table 3”, the “caspase-3/7 activity (Lum), compound alone” value was found to be 7 ± 1 Lum.

Regarding `O=C(NC(=S)Nc1ccccc1)c1ccc(Br)o1` [Compound 2-8], the “caspase-3/7 activity (Lum), compound with cisplatin” value under setting [3] is given as 20 ± 2 Lum. In addition, the “caspase-3/7 activity (Lum), compound alone” value (Table 3) is on record as 7 ± 2 Lum.

With `O=C(NC(=S)NCC1CCCO1)c1ccccc1` (centres unmarked) [Compound 2-9], under setting [3], the “caspase-3/7 activity (Lum), compound with cisplatin” value is recorded as 20 ± 2 Lum. Also, the “caspase-3/7 activity (Lum), compound alone” value (Table 3) was 8 ± 1 Lum.

On to `Cc1c(NC(=S)NC(=O)C(C)(C)C)c(=O)n(-c2ccccc2)n1C` [Compound 2-10], for which the “caspase-3/7 activity (Lum), compound with cisplatin” value under setting [3] is recorded as 20 ± 2 Lum. The “caspase-3/7 activity (Lum), compound alone” value (Table 3) was 7 ± 2 Lum.

For `CC(C)C(=O)NC(=S)Nc1ccc(F)c(Cl)c1` [Compound 2-11], the “caspase-3/7 activity (Lum), compound with cisplatin” value under setting [3] was 17 ± 2 Lum. The “caspase-3/7 activity (Lum), compound alone” value (Table 3) is 9 ± 1 Lum.

On to `O=C(CNC(=S)NC(=O)c1ccco1)c1ccccc1` [Compound 2-12], for which the “caspase-3/7 activity (Lum), compound with cisplatin” value under setting [3] is recorded as 18 ± 1 Lum. Also, the “caspase-3/7 activity (Lum), compound alone” value (Table 3) is listed as 7 ± 1 Lum.

In the case of `O=C(NC(=S)NC1CCS(=O)(=O)C1)c1ccc(F)cc1` (centres unmarked) [Compound 2-13], the “caspase-3/7 activity (Lum), compound with cisplatin” value under setting [3] came to 20 ± 3 Lum. In addition, the “caspase-3/7 activity (Lum), compound alone” value (Table 3) turned out to be 8 ± 1 Lum.

In the case of `O=C(NC(=S)NC1CCS(=O)(=O)C1)c1ccccc1` (centres unmarked) [Compound 2-14], the “caspase-3/7 activity (Lum), compound with cisplatin” value under setting [3] was determined as 21 ± 2 Lum. Also, the “caspase-3/7 activity (Lum), compound alone” value (Table 3) was determined as 8 ± 1 Lum.

Turning to `COCCCNC(=S)NC(=O)c1ccc(F)cc1` [Compound 2-15], the “caspase-3/7 activity (Lum), compound with cisplatin” value under setting [3] was 18 ± 3 Lum. Besides, the “caspase-3/7 activity (Lum), compound alone” value (Table 3) stood at 8 ± 1 Lum.

As to `O=C(NC(=S)Nc1ccc(F)c(Cl)c1)C1CCCCC1` [Compound 2-16], the “caspase-3/7 activity (Lum), compound with cisplatin” value under setting [3] is 17 ± 1 Lum. The “caspase-3/7 activity (Lum), compound alone” value (Table 3) came out at 8 ± 1 Lum.

With `O=C(NC(=S)NCCN1CCOCC1)c1ccc(F)cc1` [Compound 2-17], the “caspase-3/7 activity (Lum), compound with cisplatin” value under setting [3] is reported as 18 ± 1 Lum. The “caspase-3/7 activity (Lum), compound alone” value (Table 3) is on record as 7 ± 2 Lum.

With `O=C(NC(=S)NCCN1CCOCC1)c1ccc(Cl)cc1` [Compound 2-18], the “caspase-3/7 activity (Lum), compound with cisplatin” value under setting [3] is on record as 17 ± 1 Lum. In addition, the “caspase-3/7 activity (Lum), compound alone” value (Table 3) is on record as 9 ± 1 Lum.

`CC(C)(C)C(=O)NC(=S)Nc1sc2c(c1C(N)=O)CCCC2` [Compound 2-20]: the “caspase-3/7 activity (Lum), compound with cisplatin” value under setting [3] turned out to be 15 ± 2 Lum. For the same compound, where the note is “Table 3”, the “caspase-3/7 activity (Lum), compound alone” value came to 8 ± 1 Lum.

For `O=C(NC(=S)Nc1ccccc1F)c1ccco1` [Compound 2-21], the “caspase-3/7 activity (Lum), compound with cisplatin” value under setting [3] turned out to be 25 ± 1 Lum. The “caspase-3/7 activity (Lum), compound alone” value (Table 3) was 8 ± 1 Lum.

Turning to `O=C(CNC(=S)NC(=O)c1ccc(F)cc1)c1ccccc1` [Compound 2-22], under setting [3], the “caspase-3/7 activity (Lum), compound with cisplatin” value is 26 ± 2 Lum. The “caspase-3/7 activity (Lum), compound alone” value (Table 3) came out at 9 ± 1 Lum.

For the compound `Cc1ccc(NC(=S)NC(=O)c2ccc(F)cc2)nc1` [Compound 2-23], the “activity in the screen … active / inactive” value is “inactive”. Moreover, the “caspase-3/7 activity (Lum), compound with cisplatin” value under setting [3] amounted to 22 ± 2 Lum. Besides, the “caspase-3/7 activity (Lum), compound alone” value (Table 3) is reported as 7 ± 0 Lum.

As for `Cc1ccc(C(=O)NC(=S)Nc2ccc(C)cn2)cc1` [Compound 2-24], the “activity in the screen … active / inactive” value is “inactive”. Besides, under setting [3], the “caspase-3/7 activity (Lum), compound with cisplatin” value was determined as 19 ± 5 Lum. Besides, where the note is “Table 3”, the “caspase-3/7 activity (Lum), compound alone” value came to 7 ± 1 Lum.

As to `COc1ccc(C(C)=C2C(=O)NC(=S)NC2=O)cc1` [Compound 2-25], the “caspase-3/7 activity (Lum), compound with cisplatin” value under setting [3] amounted to 24 ± 2 Lum. Also, where the note is “Table 3”, the “caspase-3/7 activity (Lum), compound alone” value was 6 ± 0 Lum.

Regarding `COc1ccc(C(C)=C2C(=O)NC(=S)NC2=O)cc1OC` [Compound 2-26], the “caspase-3/7 activity (Lum), compound with cisplatin” value under setting [3] turned out to be 21 ± 4 Lum. For the same compound, the “caspase-3/7 activity (Lum), compound alone” value (Table 3) worked out at 6 ± 0 Lum.

For the compound `CCCN1C(=O)C(=C(C)NC2CCC(C)CC2)C(=O)NC1=S` (centres unmarked) [Compound 2-27], the “caspase-3/7 activity (Lum), compound with cisplatin” value under setting [3] stood at 19 ± 3 Lum. Moreover, the “caspase-3/7 activity (Lum), compound alone” value (Table 3) was 7 ± 1 Lum.

Take `O=C(NC(=S)NCCc1ccccc1)C1CCCCC1` [Compound 2-28]: the “caspase-3/7 activity (Lum), compound with cisplatin” value under setting [3] was 18 ± 2 Lum. The “caspase-3/7 activity (Lum), compound alone” value (Table 3) was determined as 7 ± 1 Lum.

`NC(=O)c1ccccc1NC(=S)NC(=O)c1ccco1` [Compound 2-29]: under setting [3], the “caspase-3/7 activity (Lum), compound with cisplatin” value amounted to 19 ± 3 Lum. Besides, the “caspase-3/7 activity (Lum), compound alone” value (Table 3) is reported as 7 ± 1 Lum.

Take `O=C(NC(=S)NCc1ccccc1)C1CCCCC1` [Compound 2-30]: the “caspase-3/7 activity (Lum), compound with cisplatin” value under setting [3] was found to be 20 ± 5 Lum. Moreover, the “caspase-3/7 activity (Lum), compound alone” value (Table 3) amounted to 6 ± 0 Lum.

For the origin of these results see patent US10478437B2, “Combination therapy to enhance the anticancer efficacy of platinum drugs” (University of Pittsburgh-of the Commonwealth System of …, priority 2014, dated 2019).
